Results on 3 compounds are retold here after publication PMC9848270, “Synthesis and biological assessment of indole derivatives containing penta-heterocycles scaffold as novel anticancer agents towards A549 and K562 cells” (Journal of Enzyme Inhibition and Medicinal Chemistry, 2023).

The subject of one data set is MCF-7 cell. The arrangement: method as in PMID 33130342. The following applies: cited from earlier work.
For data set [1], the system named is A549 cells. As to the kind of experiment: DAPI staining, A549. It is filed as cell-based, human. As to conditions: 1, 2 and 4 µM, 48 h. The procedure: DAPI staining assay, A549 or K562 cells were separately seeded at 4.0 × 10^5 cells per well in six–well plates and incubated for 24 h until adherent. Next, the cells were treated with 10 b at 0, 1, 2 and 4 µM for 48 h. Then the cells were fixed with 4% paraformaldehyde for 15 min, and 1 ml/well of DAPI staining dye was added for 20 min in the dark. After adding the anti-fluorescence quencher, the cells can be imaged by an inverted fluorescence microscope.

In data set [2] the test system is human chronic myeloid leukaemia cells (K562). As to the kind of experiment: MTT antiproliferative assay, K562. The format is cell-based. A digest of the protocol: (§1)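 Cells seeded at 10^4 per well in DMEM or RPMI 1640, pre-cultured 24 h before compound addition. Antiproliferative effect measured by MTT, with 5-Fluorouracil and Gefitinib as references; IC50 derived from concentration–response fitting.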

Data set [3] relates to human liver cancer cells (HepG2). As to the kind of experiment: MTT antiproliferative assay, HepG2. The format is cell-based. A digest of the protocol:
as §1

Data set [4] concerns human non-small cell lung cancer cells (A549). The data set is described as follows: MTT antiproliferative assay, A549. It is filed as cell-based. A digest of the protocol:
as §1

The subject of data set [5] is A549 cells. As to the kind of experiment: Wound healing migration assay, A549. It is filed as cell-based, human. The following applies: 1 µM. How it is done: After 24 h of growth, cells were placed in a 6-well plate, scratched using a 10 µL pipet tip on the cell surface. Then, gently wash twice with medium to remove the detached cells. The cells were treated with compound 10 b with 0.5 and 1.0 µM followed by 48 h incubation and photographed using an inverted microscope.

Data set [6] deals with K562 cells. As to the kind of experiment: Annexin V-FITC/PI apoptosis flow cytometry, K562. The format is cell-based, human. As to conditions: 48 h, annexin V-FITC/PI. How it is done: (§2) Annexin-V/FITC assay, after the adherent cells grew stably in the 6-well plate, each group was reacted with different concentrations of compound solutions for 48 h. Then, cells were collected by trypsinization without EDTA, rinsed twice with PBS, followed by the Annexin V-FITC/PI apoptosis detection kit (Solarbio, Bei Jing, China) according to the kit instructions, flow cytometry by BD FACSCalibur instrument (American BD Company Shanghai Co., Ltd.).

Data set [7] has as its system MDM2 and p53 levels in K562. The data set is described as follows: Western blot, K562. It is filed as cell-based, human. The following applies: 0.5 µM, 48 h. The procedure: (§3) Cells were treated with different concentrations of compound for 48 h. After incubation, the cells were washed and collected. Total cell extracts were prepared with RIPA buffer, containing protease inhibitor and phosphatase inhibitor. The lysate was incubated at 0 °C for 60 min, and centrifuged at 12,000 rpm for 15 min at 4 °C to remove cellular debris. Next, the protein concentration was detected using BCA protein concentration assay kit (Beyotime, Shanghai). 20 µg of total protein was subjected to gel electrophoresis and transferred to PVDF membranes (Millipore, Burlington, MA, USA). After blocking in 5% BSA blocking buffer for 60 min, then incubated with primary antibody overnight at 4 °C, washed three times with TBST for 5 min each, followed by incubation with secondary antibody and washed. The blot was developed and exposed by chemiluminescence developer solution, which was placed on a chemiluminescence developer (Pierce, Rockford, Illinois, USA).

Data set [8] relates to A549 cells. As to the kind of experiment: Cell cycle analysis (PI staining, flow cytometry), A549. The format is cell-based, human. How it is done: (§4) A549 or K562 cells were separately seeded at 4.0 × 10^5cells/well in six-well plates and incubated for 24 h until adherent. […] After treatment, the cells were collected, and washed twice with pre-cooled PBS and then fixed with ice-cold ethanol (70%), subsequently kept 4 °C for overnight. After washing twice with PBS, cells were incubated at 37 °C with 100 µ L RNase A for 30 min. After this, cells were incubated with 400 µL PI for 30 min at 4 °C. Finally, the cell cycle distribution of compound 10 b was analysed via the BD FACSCalibur flow cytometry (American BD Corporation Shanghai Co. Ltd.)

For data set [9], the system named is A549 cells. As to the kind of experiment: Annexin V-FITC/PI apoptosis flow cytometry, A549. It is filed as cell-based, human. The following applies: 48 h, annexin V-FITC/PI. How it is done: as §2
The test system of data set [10] is human prostate cancer cells (PC-3). As to the kind of experiment: MTT antiproliferative assay, PC-3. The format is cell-based. As to conditions: for IC50: 48 h, MTT assay, read-out: In vitro cytotoxicity IC50, PC-3. The procedure, abridged: as §1
Data set [11] deals with K562 cells. As to the kind of experiment: Cell cycle analysis (PI staining, flow cytometry), K562. It is filed as cell-based, human. The procedure: as §4
The subject of data set [12] is EGFR, p-EGFR, Akt and p-Akt levels in A549. The data set is described as follows: Western blot, A549. The format is cell-based, human. As to conditions: 0.5 and 1 μM, 48 h. How it is done:
as §3

Data set [13] concerns normal cell line (HEK293). The data set is described as follows: MTT cytotoxicity, normal cell line HEK293. It is filed as cell-based, human. The following applies: Homo sapiens, HEK293; 10 μM; read-out: Inhibition rate, HEK293.
Data set [14] is described as follows: MTT cytotoxicity, normal cell line HEK293. It is filed as cell-based, human. As to conditions: human.
Data set [15] deals with epidermal growth factor receptor (EGFR). As to conditions: read-out: EGFR inhibition IC50; cited from earlier work.

Where two headings read alike, the source gives them in different places.

`O=C(Nc1nnc(SCc2ccc(Cl)c(Cl)c2)s1)c1cn(C2CC2)c2cc(N3CCNCC3)c(F)cc2c1=O` [Compound B]: in the data set with MCF-7 cell, the “apoptosis in MCF-7 cell, in words” value is “inducing apoptosis significantly”.
Consider `COc1cc(-c2nnc(SCC(=O)Nc3cc(-c4c[nH]c5ccccc45)n[nH]3)s2)cc(OC)c1OC` [Compound 10b, N-(3-(1H-indol-3-yl)-1H-pyrazol-5-yl)-2-((5-(3,4,5-trimethoxyphenyl)-1,3,4-thiadiazol-2-yl)thio)acetamide], for which the “apoptosis by DAPI staining, in words” value in the data set with A549 cells [1] is listed as “induced apoptosis”. For the same compound, the inhibition at 10 µM in data set [2] (K562, 10 μM, read-out: Inhibition rate, K562) amounted to 97.2 ± 0.526%; in data set [3] (10 μM, read-out: Inhibition rate, HepG2) it was 92.1 ± 3.01%; in data set [4] (A549, 10 μM, read-out: Inhibition rate, A549), 96.2 ± 0.737%; in [10] (Homo sapiens, 10 μM, read-out: Inhibition rate, PC-3), 88.4 ± 5.99%; in data set [13] it was 77.9 ± 2.08%. Also, the IC50 in data set [2] (K562, 48 h, MTT assay, 48 h, read-out: In vitro cytotoxicity IC50, K562) is 13.2 ± 10 nM; in [2] (K562, Table 2, unit inferred, repeats Table 1, read-out: K562 (IC50, Table 2)), 13.2 ± 10 nM; in data set [2] (K562, as stated in abstract and conclusion, read-out: IC50 against K562), 10 nM; in data set [3] (MTT assay, 48 h, read-out: In vitro cytotoxicity IC50, HepG2), 210 ± 70 nM; in data set [4] (A549, 48 h, MTT assay, 48 h, read-out: In vitro cytotoxicity IC50, A549), 120 nM; in data set [4] (A549, Table 2, unit inferred, repeats Table 1, read-out: A549 (IC50, Table 2)), 124 ± 50 nM. Besides, the IC50 in data set [4] (A549, as stated in abstract and conclusion, read-out: IC50 against A549) was determined as 12 nM; in data set [10] (Homo sapiens) it was 850 nM; in data set [10] it was 853 ± 720 nM. Moreover, the “migration of A549 cells, in words” value in the data set with A549 cells [5] is given as “could inhibit the migration of A549 cells”. The “Q2, late apoptotic cells, K562” value came out at 58.2% in the data set with K562 cells [6] (1 μM), 67.8% in the data set with K562 cells [6] (2 μM) and 73.2% in the data set on K562 cells [6] (4 μM). For the same compound, in data set [7], the “MDM2 expression in K562” value is given as “significantly downregulated”. For the same compound, the “p53 protein level in K562” value in data set [7] is on record as “upregulated in a certain extent”. Also, the “DNA contents of the live population, G0/G1 phase, A549” value in the data set with A549 cells [8] (4 µM, 48 h) is 38.60%. The “DNA contents of the live population, G2/M phase, A549” value in the data set on A549 cells [8] (4 µM, 48 h) was found to be 24.33%. Also, the “DNA contents of the live population, S phase, A549” value with A549 cells [8] (4 µM, 48 h) was 27.47%. In addition, the “cell cycle arrest in words, A549” value with A549 cells [8] (dose-dependent, 1, 2, 4 µM) is recorded as “arresting cells in the G2/M phase”. For the same compound, the “Q2, late apoptotic cells, A549” value was 8.36% with A549 cells [9] (1 μM), 16.0% in the data set on A549 cells [9] (2 μM) and 35.7% in the data set on A549 cells [9] (4 μM). For the same compound, the “DNA contents of the live population, G2/M phase, K562” value in the data set with K562 cells [11] (4 µM, 48 h) was determined as 27.60%. In addition, in the data set on K562 cells [11] (4 µM, 48 h), the “DNA contents of the live population, S phase, K562” value was determined as 26.47%. Besides, in the data set on K562 cells [11] (dose-dependent, 1, 2, 4 µM), the “cell cycle arrest in words, K562” value is recorded as “arresting cells in the G2/M phase”. Further, the “p-Akt protein level in A549” value in [12] is “downregulated in a dose dependently manner”. Moreover, in data set [12], the “p-EGFR protein level in A549” value was “downregulated in a dose dependently manner”. In addition, the IC50 at 48 h in [14] (HEK293 cells (normal cell line), MTT assay, 48 h, normal cell line, CC50, read-out: In vitro cytotoxicity IC50, HEK293) amounted to 1120 ± 1390 nM. The cytotoxic concentration (CC50) in data set [14] (HEK293 cells, Table 2, unit inferred, repeats Table 1) amounted to 1120 ± 1390 nM.
As to `C=CCSc1nnc(-c2cc3ccccc3[nH]2)n1N=Cc1c[nH]c2ccccc12` [Compound C], in data set [15], the half-maximal inhibitory concentration (IC50) was 19.8 nM.
